Earlier results as cited in PMC6844301, “Antibacterial activity of a Tribolium castaneum defensin in an in vitro infection model of Streptococcus pneumoniae” (Virulence, 2019).

Tested on: multi-resistant clinical isolate serotype 19A (AMR)
Conditions: strain description of the AMR isolate in methods; method or ref not given
Experimental: They were grown on sheep blood agar plates for 10 h and then transferred to Todd Hewitt Yeast (THY) medium (Carl Roth GmbH, Karlsruhe) at a density of 4 × 10^7 bacteria/ml (Ultraspec 10 Cell Densitometer, Amersham Biosciences). Upon reaching a density of 2 × 10^8 bacteria/ml, the bacterial suspension was diluted to 5 × 10^6 bacteria/ml. To esta ...

**Q.** For `CCC[C@@H]1C[C@@H](C(=O)N[C@@H]([C@H]2O[C@H](SC)[C@H](O)[C@@H](O)[C@H]2O)[C@H](C)Cl)N(C)C1` [Clindamycin], which “resistant against (antibiotic concentration)” value (“resistant against” below) is on record?
**A.** 256 µg/mL

**Q.** With `CN(C)[C@@H]1C(O)=C(C(N)=O)C(=O)[C@@]2(O)C(O)=C3C(=O)c4c(O)cccc4[C@@](C)(O)[C@H]3C[C@@H]12` [Tetracycline] as the compound, how does the “resistant against” value read?
**A.** 32 µg/mL

**Q.** With `CO/N=C(\C(=O)N[C@@H]1C(=O)N2C(C(=O)O)=C(COC(C)=O)CS[C@H]12)c1csc(N)n1` [Cefotaxim] as the compound, how does the “resistant against” value read?
**A.** 4 µg/mL

**Q.** Which “resistant against” value does the source give for Penicillin here?
**A.** 8 µg/mL
